Measured values taken from ChEMBL document CHEMBL4364276, “Discovery of 4-phenyl-2H-benzo[b][1,4]oxazin-3(4H)-one derivatives as potent and orally active PI3K/mTOR dual inhibitors” (Eur J Med Chem, 2019).

How the values were obtained:
[1] = test system: L02; experiment: Cytotoxicity against human LO2 cells assessed as reduction in cell viability at 0.625 to 20 uM incubated for 72 hrs by MTT assay; format: cell-based; settings: l02, 72 h
[2] = test system: A-375; experiment: Antiproliferative activity against human A375 cells assessed as reduction in cell viability incubated for 72 hrs by MTT assay; format: functional, cell-based; settings: A-375, 72 h
[3] = biological target: RAC-alpha serine/threonine-protein kinase (Homo sapiens) (UniProt P31749); experiment: Inhibition of human AKT1 at 100 nM using KGSGSGRPRTSSFAEG as substrate by [gamma-33P]-ATP assay
[4] = biological target: RAC-beta serine/threonine-protein kinase (Homo sapiens) (UniProt P31751); experiment: Inhibition of human AKT2 at 100 nM using KGSGSGRPRTSSFAEG as substrate by [gamma-33P]-ATP assay
[5] = biological target: Calcium/calmodulin-dependent protein kinase kinase 1 (Homo sapiens) (UniProt Q8N5S9); experiment: Inhibition of human CAMKK1 at 100 nM using MBP as substrate by [gamma-33P]-ATP assay
[6] = biological target: CDK1/Cyclin E (Homo sapiens) (UniProt P06493+P24864); experiment: Inhibition of human CDK1/cyclinE at 100 nM using RB protein as substrate by [gamma-33P]-ATP assay; format: protein-complex assay
[7] = biological target: Serine/threonine-protein kinase Chk1 (Homo sapiens) (UniProt O14757); experiment: Inhibition of human CHK1 at 100 nM using KKKVSRSGLYRSPSMPENLNRPR as substrate by [gamma-33P]-ATP assay
[8] = biological target: Casein kinase I isoform alpha (Homo sapiens) (UniProt P48729); experiment: Inhibition of human CK1a1 at 100 nM using KRRRAL[pS]VASLPGL as substrate by [gamma-33P]-ATP assay
[9] = biological target: Casein kinase I isoform gamma-1 (Homo sapiens) (UniProt Q9HCP0); experiment: Inhibition of human CK1gamma1 at 100 nM using KRRRAL[pS]VASLPGL as substrate by [gamma-33P]-ATP assay
[10] = biological target: Casein kinase I isoform gamma-2 (Homo sapiens) (UniProt P78368); experiment: Inhibition of human CK1gamma2 at 100 nM using KRRRAL[pS]VASLPGL as substrate by [gamma-33P]-ATP assay
[11] = biological target: Casein kinase I isoform gamma-3 (Homo sapiens) (UniProt Q9Y6M4); experiment: Inhibition of human CK1gamma3 at 100 nM using KRRRAL[pS]VASLPGL as substrate by [gamma-33P]-ATP assay
[12] = biological target: Casein kinase II subunit alpha' (Homo sapiens) (UniProt P19784); experiment: Inhibition of human CK2A2 at 100 nM using RRRDDDSDDD as substrate by [gamma-33P]-ATP assay
[13] = biological target: Megakaryocyte-associated tyrosine-protein kinase (Homo sapiens) (UniProt P42679); experiment: Inhibition of human CTK at 100 nM using poly[Glu:Tyr] (4:1) as substrate by [gamma-33P]-ATP assay
[14] = biological target: Discoidin domain-containing receptor 2 (Homo sapiens) (UniProt Q16832); experiment: Inhibition of human DDR2 at 100 nM using KKSRGDYMTMQIG as substrate by [gamma-33P]-ATP assay
[15] = biological target: Dual specificity tyrosine-phosphorylation-regulated kinase 1B (Homo sapiens) (UniProt Q9Y463); experiment: Inhibition of human DYRK1B at 100 nM using RRRFRPASPLRGPPK as substrate by [gamma-33P]-ATP assay
[16] = biological target: Ephrin type-A receptor 3 (Homo sapiens) (UniProt P29320); experiment: Inhibition of human EPHA3 at 100 nM using poly[Glu:Tyr] (4:1) as substrate by [gamma-33P]-ATP assay
[17] = biological target: Tyrosine-protein kinase JAK1 (Homo sapiens) (UniProt P23458); experiment: Inhibition of human JAK1 at 100 nM using poly[Glu:Tyr] (4:1) as substrate by [gamma-33P]-ATP assay
[18] = biological target: Tyrosine-protein kinase Lyn (Homo sapiens) (UniProt P07948); experiment: Inhibition of human LYN at 100 nM using poly[Glu:Tyr] (4:1) as substrate by [gamma-33P]-ATP assay
[19] = biological target: Mitogen-activated protein kinase kinase kinase 21 (Homo sapiens) (UniProt Q5TCX8); experiment: Inhibition of human MLK4 at 100 nM using MEK1 as substrate by [gamma-33P]-ATP assay
[20] = biological target: Myosin-IIIa (Homo sapiens) (UniProt Q8NEV4); experiment: Inhibition of human MYO3A at 100 nM using MBP as substrate by [gamma-33P]-ATP assay
[21] = biological target: Ribosomal protein S6 kinase beta-2 (Homo sapiens) (UniProt Q9UBS0); experiment: Inhibition of human p70S6Kb at 100 nM using KKRNRTLTK as substrate by [gamma-33P]-ATP assay
[22] = biological target: Inactive tyrosine-protein kinase PEAK1 (Homo sapiens) (UniProt Q9H792); experiment: Inhibition of human PEAK1 at 100 nM using MBP as substrate by [gamma-33P]-ATP assay
[23] = biological target: Phosphorylase b kinase gamma catalytic chain, liver/testis isoform (Homo sapiens) (UniProt P15735); experiment: Inhibition of human PHKgamma2 at 100 nM using MBP as substrate by [gamma-33P]-ATP assay
[24] = biological target: Serine/threonine-protein kinase D1 (Homo sapiens) (UniProt Q15139); experiment: Inhibition of human PKCmu at 100 nM using KKLNRTLSVA as substrate by [gamma-33P]-ATP assay
[25] = biological target: STE20-like serine/threonine-protein kinase (Homo sapiens) (UniProt Q9H2G2); experiment: Inhibition of human SLK at 100 nM using Histone H3 as substrate by [gamma-33P]-ATP assay
[26] = biological target: Serine/threonine-protein kinase 16 (Homo sapiens) (UniProt O75716); experiment: Inhibition of human STK16 at 100 nM using MBP as substrate by [gamma-33P]-ATP assay
[27] = biological target: Serine/threonine-protein kinase 25 (Homo sapiens) (UniProt O00506); experiment: Inhibition of human STK25 at 100 nM using MBP as substrate by [gamma-33P]-ATP assay
[28] = biological target: STE20/SPS1-related proline-alanine-rich protein kinase (Homo sapiens) (UniProt Q9UEW8); experiment: Inhibition of human STK39 at 100 nM using MBP as substrate by [gamma-33P]-ATP assay
[29] = biological target: Mitogen-activated protein kinase kinase kinase 7 (Homo sapiens) (UniProt O43318); experiment: Inhibition of human TAK1 at 100 nM using casein as substrate by [gamma-33P]-ATP assay
[30] = organism: Homo sapiens; experiment: Inhibition of human AMPK (A2/B1/G1) at 100 nM using HMRSAMSGLHLVKRR as substrate by [gamma-33P]-ATP assay
[31] = biological target: [Pyruvate dehydrogenase (acetyl-transferring)] kinase isozyme 1, mitochondrial (Homo sapiens) (UniProt Q15118); experiment: Inhibition of human PDK1 at 100 nM using MBP as substrate by [gamma-33P]-ATP assay

Sequence of Casein kinase I isoform gamma-3 (Homo sapiens) (Q9Y6M4 whole entry, looked up, canonical isoform): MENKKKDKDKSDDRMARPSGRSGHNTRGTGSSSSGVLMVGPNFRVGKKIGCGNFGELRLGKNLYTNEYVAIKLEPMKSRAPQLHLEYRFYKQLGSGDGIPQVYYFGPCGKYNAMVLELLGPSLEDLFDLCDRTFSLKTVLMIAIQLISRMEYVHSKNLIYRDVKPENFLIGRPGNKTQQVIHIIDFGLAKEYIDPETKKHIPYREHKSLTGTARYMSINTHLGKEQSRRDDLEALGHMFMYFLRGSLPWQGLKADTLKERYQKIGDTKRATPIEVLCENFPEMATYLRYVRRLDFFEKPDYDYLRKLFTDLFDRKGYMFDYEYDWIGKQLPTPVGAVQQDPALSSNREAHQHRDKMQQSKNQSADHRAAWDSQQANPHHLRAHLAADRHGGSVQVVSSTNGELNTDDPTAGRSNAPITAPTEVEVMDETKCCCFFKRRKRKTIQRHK
Sequence of Discoidin domain-containing receptor 2 (Homo sapiens) (Q16832 whole entry, the tested form may be a part): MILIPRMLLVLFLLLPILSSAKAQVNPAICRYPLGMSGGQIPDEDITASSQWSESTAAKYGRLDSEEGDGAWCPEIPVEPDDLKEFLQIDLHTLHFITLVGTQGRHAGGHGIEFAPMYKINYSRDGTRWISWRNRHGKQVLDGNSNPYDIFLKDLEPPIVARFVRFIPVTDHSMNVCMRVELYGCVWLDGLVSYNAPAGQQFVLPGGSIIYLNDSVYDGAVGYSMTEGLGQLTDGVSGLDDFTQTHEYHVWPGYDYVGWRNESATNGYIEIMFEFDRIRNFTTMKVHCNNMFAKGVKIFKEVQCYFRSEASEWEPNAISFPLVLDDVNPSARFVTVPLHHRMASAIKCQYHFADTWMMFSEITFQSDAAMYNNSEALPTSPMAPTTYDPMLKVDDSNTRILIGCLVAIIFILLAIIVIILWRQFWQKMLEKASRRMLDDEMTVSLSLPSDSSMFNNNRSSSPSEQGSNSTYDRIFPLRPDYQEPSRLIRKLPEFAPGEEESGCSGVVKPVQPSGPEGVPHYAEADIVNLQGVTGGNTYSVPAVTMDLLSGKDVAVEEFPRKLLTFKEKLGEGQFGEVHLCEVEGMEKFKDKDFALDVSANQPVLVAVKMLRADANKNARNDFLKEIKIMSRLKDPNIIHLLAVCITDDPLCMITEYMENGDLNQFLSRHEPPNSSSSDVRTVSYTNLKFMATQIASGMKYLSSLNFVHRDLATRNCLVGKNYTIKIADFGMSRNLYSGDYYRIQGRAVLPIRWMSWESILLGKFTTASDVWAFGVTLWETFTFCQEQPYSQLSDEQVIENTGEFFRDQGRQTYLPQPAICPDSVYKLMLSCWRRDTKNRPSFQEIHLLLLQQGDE
Sequence of Ribosomal protein S6 kinase beta-2 (Homo sapiens) (Q9UBS0 whole entry): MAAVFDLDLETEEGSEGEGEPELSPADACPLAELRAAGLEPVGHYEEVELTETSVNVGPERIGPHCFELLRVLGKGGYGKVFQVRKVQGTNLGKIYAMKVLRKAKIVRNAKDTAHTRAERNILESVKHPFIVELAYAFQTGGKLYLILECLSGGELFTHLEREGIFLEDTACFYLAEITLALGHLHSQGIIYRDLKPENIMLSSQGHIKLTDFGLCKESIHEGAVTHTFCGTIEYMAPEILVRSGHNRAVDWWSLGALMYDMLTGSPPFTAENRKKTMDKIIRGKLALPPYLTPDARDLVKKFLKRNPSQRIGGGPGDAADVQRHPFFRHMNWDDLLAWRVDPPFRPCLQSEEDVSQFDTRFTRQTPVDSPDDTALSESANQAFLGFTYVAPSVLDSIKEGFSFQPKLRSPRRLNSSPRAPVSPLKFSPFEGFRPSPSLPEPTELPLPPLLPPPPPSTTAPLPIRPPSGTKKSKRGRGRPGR
Sequence of Mitogen-activated protein kinase kinase kinase 7 (Homo sapiens) (O43318 whole entry): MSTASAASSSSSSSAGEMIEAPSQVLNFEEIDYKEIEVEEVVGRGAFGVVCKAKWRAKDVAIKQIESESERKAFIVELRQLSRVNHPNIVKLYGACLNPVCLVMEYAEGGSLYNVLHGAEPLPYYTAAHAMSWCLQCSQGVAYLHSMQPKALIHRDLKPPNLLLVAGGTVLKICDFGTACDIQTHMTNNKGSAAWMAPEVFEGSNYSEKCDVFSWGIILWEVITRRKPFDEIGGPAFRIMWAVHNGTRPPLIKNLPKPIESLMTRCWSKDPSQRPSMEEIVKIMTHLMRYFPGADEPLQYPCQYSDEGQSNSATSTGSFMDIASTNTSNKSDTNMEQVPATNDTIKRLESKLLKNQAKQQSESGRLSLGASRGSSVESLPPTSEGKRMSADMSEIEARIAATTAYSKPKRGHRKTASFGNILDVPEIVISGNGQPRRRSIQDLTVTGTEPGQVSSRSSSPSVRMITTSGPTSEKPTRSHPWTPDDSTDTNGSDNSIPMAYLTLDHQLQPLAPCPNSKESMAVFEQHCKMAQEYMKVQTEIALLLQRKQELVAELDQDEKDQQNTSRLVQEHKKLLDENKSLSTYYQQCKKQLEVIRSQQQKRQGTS
Sequence of RAC-alpha serine/threonine-protein kinase (Homo sapiens) (P31749 whole entry): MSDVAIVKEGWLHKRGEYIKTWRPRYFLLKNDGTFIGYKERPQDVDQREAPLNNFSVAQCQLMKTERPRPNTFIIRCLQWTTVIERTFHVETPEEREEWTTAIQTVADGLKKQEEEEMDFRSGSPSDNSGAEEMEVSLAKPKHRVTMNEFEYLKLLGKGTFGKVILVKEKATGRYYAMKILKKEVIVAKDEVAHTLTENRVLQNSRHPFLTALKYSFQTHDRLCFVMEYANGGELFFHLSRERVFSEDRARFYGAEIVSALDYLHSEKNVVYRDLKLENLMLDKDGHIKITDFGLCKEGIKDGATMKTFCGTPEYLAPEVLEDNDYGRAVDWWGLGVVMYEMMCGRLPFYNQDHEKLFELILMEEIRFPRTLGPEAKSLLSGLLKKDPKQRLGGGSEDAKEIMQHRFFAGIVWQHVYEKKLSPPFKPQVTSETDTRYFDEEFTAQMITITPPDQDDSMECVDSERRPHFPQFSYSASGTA
Sequence of Casein kinase II subunit alpha' (Homo sapiens) (P19784 whole entry, looked up): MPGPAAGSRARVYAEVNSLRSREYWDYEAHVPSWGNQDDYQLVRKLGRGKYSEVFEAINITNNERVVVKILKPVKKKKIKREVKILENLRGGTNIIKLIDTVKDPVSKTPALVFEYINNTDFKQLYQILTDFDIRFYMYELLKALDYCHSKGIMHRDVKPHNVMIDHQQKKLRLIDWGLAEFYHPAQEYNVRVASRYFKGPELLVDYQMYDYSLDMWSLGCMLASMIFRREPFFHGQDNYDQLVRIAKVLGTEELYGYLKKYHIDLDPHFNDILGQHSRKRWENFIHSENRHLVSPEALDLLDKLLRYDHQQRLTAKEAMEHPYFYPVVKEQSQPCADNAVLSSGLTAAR
Sequence of Tyrosine-protein kinase Lyn (Homo sapiens) (P07948 2-512 limits assumed): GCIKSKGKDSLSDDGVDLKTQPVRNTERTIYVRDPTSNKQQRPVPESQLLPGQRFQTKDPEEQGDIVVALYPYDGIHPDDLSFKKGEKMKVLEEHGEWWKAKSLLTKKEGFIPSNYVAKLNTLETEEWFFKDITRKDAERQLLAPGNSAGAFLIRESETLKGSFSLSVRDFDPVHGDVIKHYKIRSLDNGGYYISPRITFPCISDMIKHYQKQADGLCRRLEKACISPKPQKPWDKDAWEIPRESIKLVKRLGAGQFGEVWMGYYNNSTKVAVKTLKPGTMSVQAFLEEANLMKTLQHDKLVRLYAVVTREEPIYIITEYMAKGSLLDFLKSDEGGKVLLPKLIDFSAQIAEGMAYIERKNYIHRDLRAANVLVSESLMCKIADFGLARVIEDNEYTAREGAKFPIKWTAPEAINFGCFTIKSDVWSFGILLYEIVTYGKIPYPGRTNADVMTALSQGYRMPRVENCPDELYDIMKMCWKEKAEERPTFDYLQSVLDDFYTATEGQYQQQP
Sequence of Serine/threonine-protein kinase D1 (Homo sapiens) (Q15139 whole entry): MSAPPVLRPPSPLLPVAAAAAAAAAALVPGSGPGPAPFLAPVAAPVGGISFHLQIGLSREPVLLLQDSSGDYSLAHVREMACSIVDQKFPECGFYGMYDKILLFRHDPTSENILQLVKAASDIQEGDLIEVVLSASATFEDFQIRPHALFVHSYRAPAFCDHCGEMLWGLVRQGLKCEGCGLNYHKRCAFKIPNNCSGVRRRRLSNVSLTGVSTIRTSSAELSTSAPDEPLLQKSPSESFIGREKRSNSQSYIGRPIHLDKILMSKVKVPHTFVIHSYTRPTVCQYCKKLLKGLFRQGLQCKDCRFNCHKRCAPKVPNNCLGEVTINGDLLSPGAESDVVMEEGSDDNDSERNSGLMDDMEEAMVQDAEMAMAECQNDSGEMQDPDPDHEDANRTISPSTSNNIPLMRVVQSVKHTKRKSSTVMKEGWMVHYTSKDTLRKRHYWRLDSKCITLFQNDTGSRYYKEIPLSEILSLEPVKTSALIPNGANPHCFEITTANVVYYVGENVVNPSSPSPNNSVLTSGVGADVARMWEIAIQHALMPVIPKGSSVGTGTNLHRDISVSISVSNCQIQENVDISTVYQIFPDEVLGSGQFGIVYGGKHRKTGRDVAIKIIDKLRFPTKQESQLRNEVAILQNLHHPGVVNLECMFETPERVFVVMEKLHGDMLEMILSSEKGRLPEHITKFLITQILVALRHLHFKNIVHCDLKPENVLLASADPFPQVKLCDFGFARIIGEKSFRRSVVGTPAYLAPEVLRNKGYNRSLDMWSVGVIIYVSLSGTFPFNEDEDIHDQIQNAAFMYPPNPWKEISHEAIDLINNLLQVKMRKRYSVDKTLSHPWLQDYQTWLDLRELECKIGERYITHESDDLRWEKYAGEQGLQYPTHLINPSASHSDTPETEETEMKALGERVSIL
Sequence of Casein kinase I isoform alpha (Homo sapiens) (P48729 2-337 limits assumed): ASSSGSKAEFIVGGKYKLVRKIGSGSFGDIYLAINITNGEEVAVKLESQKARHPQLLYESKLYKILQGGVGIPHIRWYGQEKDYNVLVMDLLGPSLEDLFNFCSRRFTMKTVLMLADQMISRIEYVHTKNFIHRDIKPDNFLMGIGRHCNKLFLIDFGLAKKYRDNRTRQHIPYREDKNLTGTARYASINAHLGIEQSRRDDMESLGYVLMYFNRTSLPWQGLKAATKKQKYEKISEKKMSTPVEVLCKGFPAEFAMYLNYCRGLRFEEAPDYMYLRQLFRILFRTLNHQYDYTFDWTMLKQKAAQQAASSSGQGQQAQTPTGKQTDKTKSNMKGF

## COc1ccc(N2C(=O)COc3ccc(-c4cnc(OC)c(NS(=O)(=O)c5ccc(F)cc5)c4)cc32)cc1
[1]
  Activity: Non-Toxic
[2]
  IC50: 18.4 µM
[3]
  inhibition: 18.2%
[4]
  inhibition: 28.1%
[5]
  inhibition: 14.3%
[6]
  inhibition: 7.09%
[7]
  inhibition: 5.54%
[8]
  inhibition: 16.6%
[9]
  inhibition: 6.26%
[10]
  inhibition: 1.74%
[11]
  inhibition: -3.55%
[12]
  inhibition: 19.8%
[13]
  inhibition: -7.54%
[14]
  inhibition: -1.84%
[15]
  inhibition: 18.8%
[16]
  inhibition: 20.6%
[17]
  inhibition: 26.8%
[18]
  inhibition: -1.62%
[19]
  inhibition: 5.78%
[20]
  inhibition: 2.8%
[21]
  inhibition: 22.3%
[22]
  inhibition: 4.84%
[23]
  inhibition: 20%
[24]
  inhibition: 25.9%
[25]
  inhibition: -0.32%
[26]
  inhibition: -2.3%
[27]
  inhibition: 0.52%
[28]
  inhibition: 10%
[29]
  inhibition: 12.5%
[30]
  inhibition: -3.88%
[31]
  inhibition: 25.8%
